Results published in patent US10675360B2 (MADRIGAL PHARMACEUTICALS, INC., priority 2014, dated 2020).

Test: Stability in mouse plasma
Format: in vitro ADME
Settings: 1 h
Experimental: SDC-TRAP-0022 and SDC-TRAP-0028 were incubated in human and mouse plasma for 2 h at 37° C. and assayed for integrity at 0.25, 0.5, 1 and 2 h. The values reported below are the remaining of the parent compound at the end of the 2 h incubation period.
This solution was used to precipitate all plasma samples in the study. 200 μL was pipetted into a 96 deepwell plate over dry ice. 10 μL of 1 mM stock in DMSO was added to a 1.5 mL microfuge tube, then 990 μL of plasma. Samples were mixed by vortex, then 50 μL of each sample was added in triplicate to a 96-well plate containing internal standard solution. This was designated the 0 hour time point sample. 250 μL of the remaining plasma sample was added to each of four 96 deepwell plates—one per time point. Samples were incubated at 37° C. with gentle shaking for 0.25, 0.5, and 1 hour. After each time point, one plate of each sample was removed from the shaker and placed on wet ice for approximately 2 minutes. 50 μL plasma aliquots (in triplicate) were added to the deepwell plate containing internal standard solution. After the last time point was extracted, the 96 deepwell plate was vortexed, then centrifuged at 2-8° C. 150 μL of supernatant was collected and 25 μL of water was added. Samples were mixed and analyzed by LC-MS/MS.
The stability of seven SDC-TRAP types in mouse plasma was measured as follows. 990 μL mouse plasma aliquots from a common stock were spiked with 10 μL of 1 mM stock of one of seven SDC-TRAP samples identified in the table below. Each sample was mixed and divided into 250 μL aliquots, each representing time points 0, 15 minutes, 30 minutes or 1 hour. At the prescribed time point, 3×50 μL samples were each mixed with 200 μL of methanol containing internal standard and held on dry ice until all time point samples were extracted. The samples collectively were vortex mixed for 1.5 minutes at 1500 rpm, then centrifuged at 4400 rpm for 10 minutes at 8° C.

SMILES	% Remaining (mouse, plasma, 10 μM)	% Remaining (mouse plasma, 37° C.)
CCNC(=O)c1nnc(-c2cc(C(C)C)c(O)cc2O)n1-c1ccc(CN2CCC(C(=O)N3CCC(COC(=O)Nc4cccc5c4CN(C4CCC(=O)NC4=O)C5=O)CC3)CC2)cc1 (stereo not shown) [SDC-TRAP-0124, (1-(1-(4-(3-(2,4-Dihydroxy-5-isopropylphenyl)-5-(ethylcarbamoyl)-4H-1,2,4-triazol-4-yl)benzyl)piperidine-4-carbonyl)piperidin-4-yl)methyl (2-(2,6-dioxopiperidin-3-yl)-1-oxoisoindolin-4-yl)carbamate]	112%	–
CCNC(=O)c1nnc(-c2cc(C(C)C)c(O)cc2O)n1-c1ccc(Oc2ccc(C(=O)N3CCC(COC(=O)Nc4cccc5c4CN(C4CCC(=O)NC4=O)C5=O)CC3)cc2)cc1 (stereo not shown) [SDC-TRAP-0125, (1-(4-(4-(3-(2,4-Dihydroxy-5-isopropylphenyl)-5-(ethylcarbamoyl)-4H-1,2,4-triazol-4-yl)phenoxy)benzoyl)piperidin-4-yl)methyl (2-(2,6-dioxopiperidin-3-yl)-1-oxoisoindolin-4-yl)carbamate]	99.4%	–
CC(C)c1cc(-c2nnc(O)n2-c2ccc(CC(=O)N(C)CCOC(=O)Nc3cccc4c3CN(C3CCC(=O)NC3=O)C4=O)cc2)c(O)cc1O (stereo not shown) [SDC-TRAP-0127, 2-(2-(4-(3-(2,4-dihydroxy-5-isopropylphenyl)-5-hydroxy-4H-1,2,4-triazol-4-yl)phenyl)-N-methylacetamido)ethyl(2-(2,6-dioxopiperidin-3-yl)-1-oxoisoindolin-4-yl)carbamate]	87.3%	–
CCNC(=O)c1nnc(-c2cc(C(C)C)c(O)cc2O)n1-c1ccc(Oc2ccc(N(C)C(=O)Oc3ccc4nc5c(c(CC)c4c3)Cn3c-5cc4c(c3=O)COC(=O)[C@]4(O)CC)cc2)cc1 [SDC-TRAP-0145, (S)-4,11-diethyl-4-hydroxy-3,14-dioxo-3,4,12,14-tetrahydro-1H-pyrano[3′,4′:6,7]indolizino[1,2-b]quinolin-9-yl (4-(4-(3-(2,4-dihydroxy-5-isopropylphenyl)-5-(ethylcarbamoyl)-4H-1,2,4-triazol-4-yl)phenoxy)phenyl)(methyl)carbamate]	–	14.1%
CCNC(=O)c1nnc(-c2cc(C(C)C)c(O)cc2O)n1-c1ccc(C(=O)N(C)CC(=O)Nc2cccc3c2CN(C2CCC(=O)NC2=O)C3=O)cc1 (stereo not shown) [SDC-TRAP-0147, 5-(2,4-dihydroxy-5-isopropylphenyl)-4-(4-((2-((2-(2,6-dioxopiperidin-3-yl)-1-oxoisoindolin-4-yl)amino)-2-oxoethyl)(methyl)carbamoyl)phenyl)-N-ethyl-4H-1,2,4-triazole-3-carboxamide]	98.1%	–
CC(C)c1cc(-c2nnc(O)n2-c2ccc(N3CCN(C(=O)c4ccc(COC(=O)Nc5cccc6c5CN(C5CCC(=O)NC5=O)C6=O)cc4)CC3)cc2)c(O)cc1O (stereo not shown) [SDC-TRAP-0156, 4-(4-(4-(3-(2,4-Dihydroxy-5-isopropylphenyl)-5-hydroxy-4H-1,2,4-triazol-4-yl)phenyl)piperazine-1-carbonyl)benzyl (2-(2,6-dioxopiperidin-3-yl)-1-oxoisoindolin-4-yl)carbamate]	90.3%	–
CC(C)c1cc(-c2nnc(O)n2-c2ccc(CN3CCN(C(=O)c4ccc(COC(=O)Nc5cccc6c5CN(C5CCC(=O)NC5=O)C6=O)cc4)CC3)c(F)c2)c(O)cc1O (stereo not shown) [SDC-TRAP-0157, 4-(4-(4-(3-(2,4-dihydroxy-5-isopropylphenyl)-5-hydroxy-4H-1,2,4-triazol-4-yl)-2-fluorobenzyl)piperazine-1-carbonyl)benzyl (2-(2,6-dioxopiperidin-3-yl)-1-oxoisoindolin-4-yl)carbamate]	81.4%	–
CCNC(=O)c1nnc(-c2cc(C(C)C)c(O)cc2O)n1-c1ccc(CN2CCC(C(=O)N[C@H](C(=O)Nc3cccc4c3CN(C3CCC(=O)NC3=O)C4=O)C(C)C)CC2)cc1 (stereo partly drawn) [SDC-TRAP-0163, 1-(4-(3-(2,4-dihydroxy-5-isopropylphenyl)-5-(ethylcarbamoyl)-4H-1,2,4-triazol-4-yl)benzyl)-N-((2S)-1-((2-(2,6-dioxopiperidin-3-yl)-1-oxoisoindolin-4-yl)amino)-3-methyl-1-oxobutan-2-yl)piperidine-4-carboxamide]	93.0%	–
CCNC(=O)c1nnc(-c2cc(C(C)C)c(O)cc2O)n1-c1ccc(CN2CCC(C(=O)N3CCC[C@H]3C(=O)Nc3cccc4c3CN(C3CCC(=O)NC3=O)C4=O)CC2)cc1 (stereo partly drawn) [SDC-TRAP-0164, 5-(2,4-dihydroxy-5-isopropylphenyl)-4-(4-((4-((2S)-2-((2-(2,6-dioxopiperidin-3-yl)-1-oxoisoindolin-4-yl)carbamoyl)pyrrolidine-1-carbonyl)piperidin-1-yl)methyl)phenyl)-N-ethyl-4H-1,2,4-triazole-3-carboxamide]	98.0%	–
CC(C)c1cc(-c2nnc(O)n2-c2ccc(CN3CCN(C(=O)Oc4ccc(COC(=O)Nc5cccc6c5CN(C5CCC(=O)NC5=O)C6=O)cc4)CC3)c(F)c2)c(O)cc1O (stereo not shown) [SDC-TRAP-0171, 4-((((2-(2,6-dioxopiperidin-3-yl)-1-oxoisoindolin-4-yl)carbamoyl)oxy)methyl)phenyl-4-(4-(3-(2,4-dihydroxy-5-isopropylphenyl)-5-hydroxy-4H-1,2,4-triazol-4-yl)-2-fluorobenzyl)piperazine-1-carboxylate]	17.7%	–
CCNC(=O)c1nnc(-c2cc(C(C)C)c(O)cc2O)n1-c1ccc(CN2CCC(C(=O)N3CCC(N(C)C(=O)Oc4ccc5nc6c(c(CC)c5c4)Cn4c-6cc5c(c4=O)COC(=O)C5(O)CC)CC3)CC2)cc1 (stereo not shown) [SDC-TRAP-0172, 4,11-diethyl-4-hydroxy-3,14-dioxo-3,4,12,14-tetrahydro-1H-pyrano[3′,4′:6,7]indolizino[1,2-b]quinolin-9-yl (1-(1-(4-(3-(2,4-dihydroxy-5-isopropylphenyl)-5-(ethylcarbamoyl)-4H-1,2,4-triazol-4-yl)benzyl)piperidine-4-carbonyl)piperidin-4-yl)(methyl)carbamate]	–	74.7%
CCNC(=O)c1nnc(-c2cc(C(C)C)c(O)cc2O)n1-c1ccc(C(=O)N2CCN(c3cc(C)c(OC(=O)Nc4cccc5c4CN(C4CCC(=O)NC4=O)C5=O)c(C)c3)CC2)cc1 (stereo not shown) [SDC-TRAP-0178, 4-(4-(4-(3-(2,4-dihydroxy-5-isopropylphenyl)-5-(ethylcarbamoyl)-4H-1,2,4-triazol-4-yl)benzoyl)piperazin-1-yl)-2,6-dimethylphenyl (2-(2,6-dioxopiperidin-3-yl)-1-oxoisoindolin-4-yl)carbamate]	82.0%	–
CCNC(=O)c1nnc(-c2cc(C(C)C)c(O)cc2O)n1-c1ccc(Oc2ccc(C(=O)N3CCC(N(C)C(=O)Oc4ccc5nc6c(c(CC)c5c4)Cn4c-6cc5c(c4=O)COC(=O)C5(O)CC)CC3)cc2)cc1 (stereo not shown) [SDC-TRAP-0180, 4,11-Diethyl-4-hydroxy-3,14-dioxo-3,4,12,14-tetrahydro-1H-pyrano[3′,4′:6,7]indolizino[1,2-b]quinolin-9-yl (1-(4-(4-(3-(2,4-dihydroxy-5-isopropylphenyl)-5-(ethylcarbamoyl)-4H-1,2,4-triazol-4-yl)phenoxy)benzoyl)piperidin-4-yl)(methyl)carbamate]	–	72.4%
CCNC(=O)c1nnc(-c2cc(C(C)C)c(O)cc2O)n1-c1ccc(CN2CCC(C(=O)N3CCN(C(=O)Oc4ccc5nc6c(c(CC)c5c4)Cn4c-6cc5c(c4=O)COC(=O)C5(O)CC)C(C)C3)CC2)cc1 (stereo not shown) [SDC-TRAP-0185, 4,11-diethyl-4-hydroxy-3,14-dioxo-3,4,12,14-tetrahydro-1H-pyrano[3′,4′:6,7]indolizino[1,2-b]quinolin-9-yl 4-(1-(4-(3-(2,4-dihydroxy-5-isopropylphenyl)-5-(ethylcarbamoyl)-4H-1,2,4-triazol-4-yl)benzyl)piperidine-4-carbonyl)-2-methylpiperazine-1-carboxylate]	–	68.1%
CCc1c2c(nc3ccc(OC(=O)N4CCC(Cn5ccc6cc(-n7c(O)nnc7-c7cc(C(C)C)c(O)cc7O)ccc65)CC4)cc13)-c1cc3c(c(=O)n1C2)COC(=O)C3(O)CC (stereo not shown) [SDC-TRAP-0186]	–	57.9%
CCNC(=O)c1nnc(-c2cc(C(C)C)c(O)cc2O)n1-c1ccc(OC2CCN(C(=O)Oc3c(C)cc(COC(=O)Nc4cccc5c4CN(C4CCC(=O)NC4=O)C5=O)cc3C)CC2)cc1 (stereo not shown) [SDC-TRAP-0187, 4-((((2-(2,6-dioxopiperidin-3-yl)-1-oxoisoindolin-4-yl)carbamoyl)oxy)methyl)-2,6-dimethylphenyl 4-(4-(3-(2,4-dihydroxy-5-isopropylphenyl)-5-(ethylcarbamoyl)-4H-1,2,4-triazol-4-yl)phenoxy)piperidine-1-carboxylate]	102%	–
CCNC(=O)c1nnc(-c2cc(C(C)C)c(O)cc2O)n1-c1ccc(CN2CCC(C(=O)N3CCN(c4cc(C)c(OC(=O)Nc5cccc6c5CN(C5CCC(=O)NC5=O)C6=O)c(C)c4)CC3)CC2)cc1 (stereo not shown) [SDC-TRAP-0195, 4-(4-(1-(4-(3-(2,4-dihydroxy-5-isopropylphenyl)-5-(ethylcarbamoyl)-4H-1,2,4-triazol-4-yl)benzyl)piperidine-4-carbonyl)piperazin-1-yl)-2,6-dimethylphenyl (2-(2,6-dioxopiperidin-3-yl)-1-oxoisoindolin-4-yl)carbamate]	98.4%	–
CCNC(=O)c1nnc(-c2cc(C(C)C)c(O)cc2O)n1-c1ccc2c(c1)CN(Cc1cc(OC)c(OC(=O)Nc3cccc4c3CN(C3CCC(=O)NC3=O)C4=O)c(OC)c1)C2 (stereo not shown) [SDC-TRAP-0196]	66.2%	–
CCNC(=O)c1nnc(-c2cc(C(C)C)c(O)cc2O)n1-c1ccc(C(=O)N2CCN(C(=O)COC(=O)OC3(CC)C(=O)OCc4c3cc3n(c4=O)Cc4c-3nc3ccc(O)cc3c4CC)CC2)cc1 (stereo not shown) [SDC-TRAP-0202, 4,11-diethyl-9-hydroxy-3,14-dioxo-3,4,12,14-tetrahydro-1H-pyrano[3′,4′:6,7]indolizino[1,2-b]quinolin-4-yl (2-(4-(4-(3-(2,4-dihydroxy-5-isopropylphenyl)-5-(ethylcarbamoyl)-4H-1,2,4-triazol-4-yl)benzoyl)piperazin-1-yl)-2-oxoethyl) carbonate]	–	21.2%
